Data from patent publication US20230018423A1, “BENZIMIDAZOLE DERIVATIVES FOR TREATMENT AND/OR PREVENTION OF DISEASES AND DISORDERS MEDIATED BY NLRP3” (YODA PHARMACEUTICALS INC., priority 2021, published 2023).

What was measured:
[1] = tested on: TgM83 mice; assay: Open field task (locomotion activity) in TgM83 mouse model; assay type: in vivo
[2] = tested on: TgM83 mice; assay: Rotarod task (motor coordination) in TgM83 mouse model; assay type: in vivo
[3] = tested on: IL-1β; assay: Inflammation cytokine ELISA in the cerebellum of TgM83 mice: IL-1β; assay type: in vivo, mouse; conditions: 30 mg/kg oral gavage, sacrificed after 20 minutes, P<0.05, FIG. 5A
From the text: (§1) To characterize the inflammatory response after RS-D7 treatment, the level of inflammation cytokines, including interleukin-1 beta (IL-1β), interleukin-6 (IL-6), and Tumor Necrosis Factor-α (TNF-α), were examined in the cerebellum of male TgM83 and WT littermate mice (n=5 each) using enzyme-linked immunosorbent assay (ELISA). All the animals were sacrificed after 20-minutes RS-D7 treatment and the tissue samples were taken from […] of the mouse brain from male WT littermates, TgM83 mice and TgM83 mice with RS-D7 treatment (30 mg/kg, P.O.). These samples were dissected on ice and then stored at −80° C. before use. The ELISA experiment was performed using commercial kits for IL-1β (88-7013, Invitrogen, USA), IL-6 (88-7064, Invitrogen, USA) and TNF-α (88-7324, Invitrogen, USA). Procedures were followed according to manufactures protocols. Standards and samples were run in triplicates. OD values were read at 450 nm using a microplate reader (ThermoFisher Scientific, USA). Calculation of concentrations were done according to manufactures protocol using standard curve methods.
(§2) All of the data are presented as the mean+SE of the mean (SEM). The data was analyzed with one-way ANOVA in behavioral results. A post-hoc analysis was performed with Fisher's LSD test when F values reaching significant difference. […]

[4] = tested on: IL-6; assay: Inflammation cytokine ELISA in the cerebellum of TgM83 mice: IL-6; assay type: in vivo, mouse; conditions: 30 mg/kg oral gavage, sacrificed after 20 minutes, P<0.05, FIG. 5B
From the text: as §1, §2

[5] = tested on: TNF-α; assay: Inflammation cytokine ELISA in the cerebellum of TgM83 mice: TNF-α; assay type: in vivo, mouse; conditions: 30 mg/kg oral gavage, sacrificed after 20 minutes, P<0.05, FIG. 5C
From the text: as §1, §2

[6] = molecular target: T1, NLRP3 inflammasome (Homo sapiens, UniProt Q96P20); assay: NLRP3 inflammasome assay, IL-1β ELISA in LPS- and ATP-treated THP-1 cells; conditions: 50 ng/mL LPS + 5 mM ATP, compared to the LPS+ATP group, MCC950 1 uM, RS-D7 0.1-5 uM, others 0.2-5 uM, FIG. 2A
T1 sequence (Q96P20 whole entry): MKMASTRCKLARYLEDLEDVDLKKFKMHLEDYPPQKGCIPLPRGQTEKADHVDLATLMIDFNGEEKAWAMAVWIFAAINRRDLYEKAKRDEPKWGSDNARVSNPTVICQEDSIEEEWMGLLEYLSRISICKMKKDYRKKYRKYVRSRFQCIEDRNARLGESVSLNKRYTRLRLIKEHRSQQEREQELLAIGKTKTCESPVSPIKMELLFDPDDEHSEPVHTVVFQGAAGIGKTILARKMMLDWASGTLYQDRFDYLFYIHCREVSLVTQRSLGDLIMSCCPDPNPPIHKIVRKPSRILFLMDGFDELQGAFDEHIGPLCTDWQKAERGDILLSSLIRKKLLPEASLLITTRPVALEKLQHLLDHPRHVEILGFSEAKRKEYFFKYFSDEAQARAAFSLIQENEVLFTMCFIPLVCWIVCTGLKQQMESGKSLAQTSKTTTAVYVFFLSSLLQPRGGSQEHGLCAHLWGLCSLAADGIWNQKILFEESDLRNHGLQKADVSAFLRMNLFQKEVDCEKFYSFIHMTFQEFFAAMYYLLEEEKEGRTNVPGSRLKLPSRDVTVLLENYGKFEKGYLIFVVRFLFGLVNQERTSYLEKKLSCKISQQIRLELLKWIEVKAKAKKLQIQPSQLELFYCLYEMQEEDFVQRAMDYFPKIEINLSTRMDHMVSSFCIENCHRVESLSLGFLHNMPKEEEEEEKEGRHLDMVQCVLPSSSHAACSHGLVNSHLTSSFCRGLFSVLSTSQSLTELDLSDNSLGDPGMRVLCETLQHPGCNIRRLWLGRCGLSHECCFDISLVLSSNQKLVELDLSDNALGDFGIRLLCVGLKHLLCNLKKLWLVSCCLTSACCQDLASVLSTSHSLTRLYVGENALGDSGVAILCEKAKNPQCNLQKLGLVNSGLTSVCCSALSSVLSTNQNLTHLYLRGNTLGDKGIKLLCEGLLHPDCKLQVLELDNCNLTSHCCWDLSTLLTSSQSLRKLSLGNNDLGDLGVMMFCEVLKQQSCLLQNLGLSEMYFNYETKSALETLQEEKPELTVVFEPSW
Procedure: (§3) The assays were conducted using Human promonocytic leukemia THP-1 cells.
(§4) Human promonocytic leukemia THP-1 cells were cultured in RPMI and treated with Phorbol 12-myristate 13-acetate (PMA). […] The supernatant of PMA-differentiated THP-1 cells was collected at given time points after stimulation, and IL-1β level in cell culture supernatant was determined using IL-1 beta Human Uncoated ELISA Kit (Invitrogen). Supernatants and cell lysate were also evaluated by immunoblotting methods. The immunoreactive signals were developed using Immobilon Crescendo Western HRP substrate and the digitized image of the membrane was detected by ImageQuant LAS 4000mini (GE) according to the manufacturer's instructions.

[7] = molecular target: T1, NLRP3 inflammasome; assay: NLRP3 inflammasome assay, IL-1β ELISA in LPS- and MSU-treated THP-1 cells; conditions: 50 ng/mL LPS + 400 ug/ml MSU, compared to the LPS+MSU group, RS-D7 0.1-5 uM, others 0.2-5 uM, FIG. 2B
Procedure: as §3, §4

[8] = molecular target: T1, NLRP3 inflammasome; assay: NLRP3 inflammasome assay, western blot (immunoblotting) of LPS+MSU-treated PMA-primed THP-1 cells; conditions: MCC950 1 uM, RS-D7 0.1, 1 and 5 uM, FIG. 1
Procedure: as §3, §4

COc1c(C)cnc(C[S+]([O-])c2nc3ccc(O)cc3[nH]2)c1C (stereo not drawn) [RS-D7, 5-O-Desmethyl-Omeprazole]
increase of distance moved versus TgM83 vehicle mice (rescue of hypolocomotion) ([1]; 30 mg/kg oral gavage, one hour, P<0.05): 5,007 cm
total distance moved in the open field test ([1]; 12-month-old, single dose 30 mg/kg PO, 1-hour period, mean±sem, TgM83 vehicle 15,472±942, WT 21,552±1,269): 20,479±730 cm
prolonging of the falling latency versus TgM83 vehicle mice ([2]; 30 mg/kg oral gavage, P<0.05): 76.8 s
falling latency on the rotarod ([2]; single dose 30 mg/kg PO, accelerating 4-40 rpm, mean±sem, TgM83 vehicle 55.3±10.4, WT 99.5±7.5): 132.1 ± 16.1 s
IL-1β level in the cerebellum (ELISA) [3]: significantly inhibit the overexpression
IL-6 level in the cerebellum (ELISA) [4]: significantly inhibit the overexpression
TNF-α level in the cerebellum (ELISA) [5]: significantly inhibit the overexpression
IL-1β level in cell culture supernatant (ELISA) [6]: significantly lower levels
IL-1β level in cell culture supernatant (ELISA) [7]: significantly lower levels
expression of IL-1β (western blot) [8]: dose-dependent inhibition
expression of caspase-1 (western blot) [8]: dose-dependent inhibition

COc1c(C)cnc(CSc2nc3cc(C(=O)O)ccc3n2CCC2=CCCCC2)c1C [compound 12083, 1-(2-(cyclohex-1-en-1-yl)ethyl)-2-(((4-methoxy-3,5-dimethylpyridin-2-yl)methyl)thio)-1H-benzo[d]imidazole-5-carboxylic acid]
IL-1β level in cell culture supernatant (ELISA) [6]: significantly lower levels
IL-1β level in cell culture supernatant (ELISA) [7]: significantly lower levels

COc1c(C)cnc(CSc2nc3cc(OC(=O)CNC(=O)OC(C)(C)C)ccc3[nH]2)c1C [compound 12093, 2-(((4-methoxy-3,5-dimethylpyridin-2-yl)methyl)thio)-1H-benzo[d]imidazol-5-yl (tert-butoxycarbonyl)glycinate]
IL-1β level in cell culture supernatant (ELISA) [6]: significantly lower levels
IL-1β level in cell culture supernatant (ELISA) [7]: significantly lower levels
